In patent publication US20020002171A1, “Materials and methods for killing nematodes and nematode eggs” (priority 2000, published 2002):

These compounds were tested on Caenorhabditis elegans (assay: C. elegans L1 nematicidal dose response in 96-well plates, 5 day visual score (Example 2; same procedure for Example 7, Table 3)). Conditions: Follow-up HTS run.
Format: in vivo
Design: key to 5 Day Visual Score V1 / 5 Day Visual Score V2 / 5 Day Visual Score V3 / 5 Day Visual Score V4 / 5 Day Visual Score V6 / 5 Day Visual Score V5 / Initial HTS Run Visual Score / Follow-up HTS Run Visual Score: Dead: only stiff L1s (no movement); Dead (L4): worms are dead, but at a later larval stage; majority of worms are L1 (based on size) worms move when plate is tapped; majority of worms are L2 (based on size); majority of worms are L3 (based on size); majority of worms are L4 (based on size); AD: majority of worms are adult; #AD: 5 adult worms or less; B!: sterile (0-25 progeny); B: low broodsize (25-100 progeny); ˜B: moderate broodsize (100-250 progeny); <: reduced broodsize (250-500 progeny); OK: no effect (˜1000+ progeny)
In short: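 L1 larvae, 20 per well in NGM with 1% E. coli HB101 and antibiotic/antimycotic, exposed to six 3-fold dilutions from 70 μM down to 0.3 μM (1.4% DMSO at top). Held at 20° C; viability scored visually under 100× dissecting microscope on day 5.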

| Compound | Follow-up HTS Run % Run [%] | Follow-up HTS Run Visual Score | Follow-up HTS Run mOD [mOD] |
| --- | --- | --- | --- |
| CCN(Cc1ccccc1)c1nc(NCc2c(F)cccc2F)ns1 [compound 299] | 115 | L4 | 185 |
| C=CCN(CC=C)c1nc(NCc2c(F)cccc2F)ns1 [compound 300] | 108 | L4/AD/B! | 174 |
| CN(Cc1ccccc1)c1nc(NCc2c(F)cccc2F)ns1 [compound 301] | 127 | B! (sterile (0-25 progeny)) | 204 |
| FC(F)(F)c1ccc(CNc2nsc(N3CCN(c4ncccn4)CC3)n2)cc1 [compound 303] | 111 |  | 178 |
| Cc1cccc(C)c1N1CCN(c2nc(NCc3ccc(C(F)(F)F)cc3)ns2)CC1 [compound 304] | 107 |  | 172 |
| CCN(c1nc(NCc2ccc(C(F)(F)F)cc2)ns1)C1CCCCC1 [compound 305] | 112 | L4 | 181 |
| CCCCCCCCCCCCCCCCCCN(C)c1nc(NCc2ccc(C(F)(F)F)cc2)ns1 [compound 306] | 102 | L1 | 165 |

Same assay, conditions: Initial HTS run

| Compound | Initial HTS Run % Run [%] | Initial HTS Run mOD [mOD] | Initial HTS Run Visual Score |
| --- | --- | --- | --- |
| CCN(Cc1ccccc1)c1nc(NCc2c(F)cccc2F)ns1 [compound 299] | 105 | 116 |  |
| C=CCN(CC=C)c1nc(NCc2c(F)cccc2F)ns1 [compound 300] | 108 | 119 |  |
| CN(Cc1ccccc1)c1nc(NCc2c(F)cccc2F)ns1 [compound 301] | 111 | 122 | B!-Few Eggs |
| FC(F)(F)c1ccc(CNc2nsc(N3CCN(c4ncccn4)CC3)n2)cc1 [compound 303] | 96 | 106 | L3 |
| Cc1cccc(C)c1N1CCN(c2nc(NCc3ccc(C(F)(F)F)cc3)ns2)CC1 [compound 304] | 96 | 106 | L4/AD/B! |
| CCN(c1nc(NCc2ccc(C(F)(F)F)cc2)ns1)C1CCCCC1 [compound 305] | 102 | 112 |  |
| CCCCCCCCCCCCCCCCCCN(C)c1nc(NCc2ccc(C(F)(F)F)cc2)ns1 [compound 306] | 107 | 118 |  |

Same assay, conditions: dose response, dilution V1, day 5

| Compound | 5 Day Visual Score V1 |
| --- | --- |
| CCN(Cc1ccccc1)c1nc(NCc2c(F)cccc2F)ns1 [compound 299] | L4#AD/B |
| C=CCN(CC=C)c1nc(NCc2c(F)cccc2F)ns1 [compound 300] | Dead(L2/L3) |
| FC(F)(F)c1ccc(CNc2nsc(N3CCN(c4ncccn4)CC3)n2)cc1 [compound 303] | Dead |
| Cc1cccc(C)c1N1CCN(c2nc(NCc3ccc(C(F)(F)F)cc3)ns2)CC1 [compound 304] | L1 |
| CCCCCCCCCCCCCCCCCCN(C)c1nc(NCc2ccc(C(F)(F)F)cc2)ns1 [compound 306] | L1 |

Same assay, conditions: dose response, dilution V2, day 5

| Compound | 5 Day Visual Score V2 |
| --- | --- |
| CCN(Cc1ccccc1)c1nc(NCc2c(F)cccc2F)ns1 [compound 299] | ˜B (moderate broodsize (100-250 progeny)) |
| CN(Cc1ccccc1)c1nc(NCc2c(F)cccc2F)ns1 [compound 301] | < (reduced broodsize (250-500 progeny)) |
| FC(F)(F)c1ccc(CNc2nsc(N3CCN(c4ncccn4)CC3)n2)cc1 [compound 303] | L1 |
| Cc1cccc(C)c1N1CCN(c2nc(NCc3ccc(C(F)(F)F)cc3)ns2)CC1 [compound 304] | OK (no effect (˜1000+ progeny)) |
| CCN(c1nc(NCc2ccc(C(F)(F)F)cc2)ns1)C1CCCCC1 [compound 305] | < (reduced broodsize (250-500 progeny)) |
| CCCCCCCCCCCCCCCCCCN(C)c1nc(NCc2ccc(C(F)(F)F)cc2)ns1 [compound 306] | L1 |

Same assay, conditions: dose response, dilution V3, day 5

| Compound | 5 Day Visual Score V3 |
| --- | --- |
| CCN(Cc1ccccc1)c1nc(NCc2c(F)cccc2F)ns1 [compound 299] | ˜B (moderate broodsize (100-250 progeny)) |
| C=CCN(CC=C)c1nc(NCc2c(F)cccc2F)ns1 [compound 300] | < (reduced broodsize (250-500 progeny)) |
| CN(Cc1ccccc1)c1nc(NCc2c(F)cccc2F)ns1 [compound 301] | OK (no effect (˜1000+ progeny)) |
| FC(F)(F)c1ccc(CNc2nsc(N3CCN(c4ncccn4)CC3)n2)cc1 [compound 303] | Dead |
| Cc1cccc(C)c1N1CCN(c2nc(NCc3ccc(C(F)(F)F)cc3)ns2)CC1 [compound 304] | OK (no effect (˜1000+ progeny)) |
| CCN(c1nc(NCc2ccc(C(F)(F)F)cc2)ns1)C1CCCCC1 [compound 305] | OK (no effect (˜1000+ progeny)) |

Same assay, conditions: dose response, dilution V4, day 5

| Compound | 5 Day Visual Score V4 |
| --- | --- |
| CCN(Cc1ccccc1)c1nc(NCc2c(F)cccc2F)ns1 [compound 299] | OK (no effect (˜1000+ progeny)) |
| C=CCN(CC=C)c1nc(NCc2c(F)cccc2F)ns1 [compound 300] | OK (no effect (˜1000+ progeny)) |
| CN(Cc1ccccc1)c1nc(NCc2c(F)cccc2F)ns1 [compound 301] | OK (no effect (˜1000+ progeny)) |
| FC(F)(F)c1ccc(CNc2nsc(N3CCN(c4ncccn4)CC3)n2)cc1 [compound 303] | OK (no effect (˜1000+ progeny)) |
| Cc1cccc(C)c1N1CCN(c2nc(NCc3ccc(C(F)(F)F)cc3)ns2)CC1 [compound 304] | OK (no effect (˜1000+ progeny)) |
| CCN(c1nc(NCc2ccc(C(F)(F)F)cc2)ns1)C1CCCCC1 [compound 305] | OK (no effect (˜1000+ progeny)) |
| CCCCCCCCCCCCCCCCCCN(C)c1nc(NCc2ccc(C(F)(F)F)cc2)ns1 [compound 306] | OK (no effect (˜1000+ progeny)) |

Same assay, conditions: dose response, dilution V5, day 5

| Compound | 5 Day Visual Score V5 |
| --- | --- |
| CCN(Cc1ccccc1)c1nc(NCc2c(F)cccc2F)ns1 [compound 299] | OK (no effect (˜1000+ progeny)) |
| C=CCN(CC=C)c1nc(NCc2c(F)cccc2F)ns1 [compound 300] | OK (no effect (˜1000+ progeny)) |
| CN(Cc1ccccc1)c1nc(NCc2c(F)cccc2F)ns1 [compound 301] | OK (no effect (˜1000+ progeny)) |
| FC(F)(F)c1ccc(CNc2nsc(N3CCN(c4ncccn4)CC3)n2)cc1 [compound 303] | < (reduced broodsize (250-500 progeny)) |
| Cc1cccc(C)c1N1CCN(c2nc(NCc3ccc(C(F)(F)F)cc3)ns2)CC1 [compound 304] | OK (no effect (˜1000+ progeny)) |
| CCN(c1nc(NCc2ccc(C(F)(F)F)cc2)ns1)C1CCCCC1 [compound 305] | OK (no effect (˜1000+ progeny)) |
| CCCCCCCCCCCCCCCCCCN(C)c1nc(NCc2ccc(C(F)(F)F)cc2)ns1 [compound 306] | OK (no effect (˜1000+ progeny)) |

Same assay, conditions: dose response, dilution V6, day 5

| Compound | 5 Day Visual Score V6 |
| --- | --- |
| CCN(Cc1ccccc1)c1nc(NCc2c(F)cccc2F)ns1 [compound 299] | OK (no effect (˜1000+ progeny)) |
| C=CCN(CC=C)c1nc(NCc2c(F)cccc2F)ns1 [compound 300] | OK (no effect (˜1000+ progeny)) |
| CN(Cc1ccccc1)c1nc(NCc2c(F)cccc2F)ns1 [compound 301] | OK (no effect (˜1000+ progeny)) |
| Cc1cccc(C)c1N1CCN(c2nc(NCc3ccc(C(F)(F)F)cc3)ns2)CC1 [compound 304] | < (reduced broodsize (250-500 progeny)) |
| CCN(c1nc(NCc2ccc(C(F)(F)F)cc2)ns1)C1CCCCC1 [compound 305] | OK (no effect (˜1000+ progeny)) |
| CCCCCCCCCCCCCCCCCCN(C)c1nc(NCc2ccc(C(F)(F)F)cc2)ns1 [compound 306] | OK (no effect (˜1000+ progeny)) |
